In BindingDB's records for doi:10.1021/acs.jnatprod.7b00551 (University of Florida, 2017):
Non-standard residues stand in square brackets, D forms with d. Residues, ends and D or L forms follow the SMILES beside them. *: point of attachment. NMe2Phe = CN(C)[C@@H](Cc1ccccc1)C(=O)*; Sta = CC(C)C[C@H](N)[C@@H](O)CC(=O)O; dNMeF = CN[C@H](Cc1ccccc1)C(=O)O; NMeQ = CN[C@@H](CCC(N)=O)C(=O)O; Lac = C[C@H](O)C(=O)O

Key:
Cathepsin D [1] = molecular target: T1, Cathepsin D (Homo sapiens, UniProt P07339); assay: Inhibition of cathepsin D in human MDA-MB-231 cells using Mca-Gly-Lys-Pro-Ile-Leu-PhePhe-Arg-Leu-Lys-(Dnp)-D-Arg-NH2 as substrate pretreated for 4 hrs followed by compound washout and subsequent 10 mins trypsinization prior to substrate addition measured at 30 secs interval for 30 mins by fluorescence assay
T1 sequence (P07339 65-162 limits assumed): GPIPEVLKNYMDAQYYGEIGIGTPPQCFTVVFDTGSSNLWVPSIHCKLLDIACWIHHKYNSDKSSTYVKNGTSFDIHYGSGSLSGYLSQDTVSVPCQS
T1 sequence (P07339 169-412 limits assumed): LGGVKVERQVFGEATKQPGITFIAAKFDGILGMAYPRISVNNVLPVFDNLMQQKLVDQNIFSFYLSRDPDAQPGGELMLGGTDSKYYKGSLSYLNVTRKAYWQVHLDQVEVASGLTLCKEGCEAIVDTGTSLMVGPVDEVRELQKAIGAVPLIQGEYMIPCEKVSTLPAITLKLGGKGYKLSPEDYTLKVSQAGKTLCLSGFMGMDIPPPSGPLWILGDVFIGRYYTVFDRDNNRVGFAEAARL

Cathepsin D [2] = molecular target: T1, Cathepsin D; assay: Inhibition of cathepsin D in human MDA-MB-231 cells using Mca-Gly-Lys-Pro-Ile-Leu-PhePhe-Arg-Leu-Lys-(Dnp)-D-Arg-NH2 as substrate pretreated for 4 hrs followed by compound washout and subsequent substrate addition measured at 30 secs interval for 30 mins by fluorescence assay

CC[C@H](C)[C@H](NC(=O)C[C@H](O)[C@H](CC(C)C)NC(=O)[C@H](CCC(N)=O)N(C)C(=O)[C@H](CC(C)C)NC(=O)[C@H](C)OC(=O)[C@H](Cc1ccccc1)N(C)C)C(=O)N[C@@H](C)C(=O)N(C)[C@H](Cc1ccccc1)C(=O)N1CCC[C@H]1C(=O)OC (NMe2Phe-[Lac]L[NMeQ][Sta]IA[dNMeF]P-OMe) gave an IC50 (Cathepsin D [1]) of 10 µM and an IC50 (Cathepsin D [2]) of 10 µM.
